Laboratory results as given in patent publication US20020137929A1, “1 - (3-heterocyclylphenyl) isothiourea, -isourea, -guanidine and -amidine herbicidal agents” (Intellectual Property Department, BASF Aktiengesellschaft, priority 1998, published 2002).

Legend:
CASOB (Sicklepod) = test: Postemergence herbicidal evaluation; assay type: in vivo, Cassia obtusifolia; conditions: postemergence
In short: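 ~2-wk seedlings; postemergence spray, 40 psi; vehicle 1:1 acetone:water + 0.5% Tween 20; rate ≈0.0156–0.500 kg/ha; greenhouse hold; scored 4–5 wk after treatment, 0–9 scale vs control; repeat tests averaged.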

[1] = tested on: GLXMAW (Soybean, Williams); test: Preemergence herbicidal evaluation; assay type: in vivo, Glycine max, (L.) Merr. cv Williams; conditions: rated 4-5 weeks after treatment
In short: (§1)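 Scores use a 0–9 visual scale covering stand, vigor, malformation, size and chlorosis relative to controls, rated four to five weeks after treatment. Before emergence, soil-planted seeds were sprayed with compound in aqueous acetone at roughly 0.0156–0.500 kg/ha and held in the greenhouse.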

[2] = tested on: TRZAWR (Wheat, Winter, cv Riband); test: Preemergence herbicidal evaluation; assay type: in vivo, Triticum aestivum; conditions: rated 4-5 weeks after treatment
In short: as §1

[3] = tested on: SAGPY (Arrowhead (Pygmaea)); test: Preemergence weed control under flooded paddy conditions; assay type: in vivo, Sagittaria pygmaea; conditions: rated 3-4 weeks after treatment
In short: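 Visual injury scored 0-9 against control three to four weeks post-treatment, greenhouse-grown. Application: acetone/water (50/50) solutions dosed directly into flood water (1.5-3 cm over silt loam, planted top 0.5 cm), roughly 0.0313 to 0.500 kg/ha active ingredient.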

ORYSAT (Rice, Tebonnet) = test: Preemergence herbicidal evaluation; assay type: in vivo, Oryza sativa, (L.) Tebonnet; conditions: rated 4-5 weeks after treatment
In short: as §1

SMILES	Preemergence herbicidal rating GLXMAW ([1]; rate 0.0156 kg/ha)	Preemergence herbicidal rating GLXMAW ([1]; rate 0.0313 kg/ha)	Preemergence herbicidal rating GLXMAW ([1]; rate 0.0625 kg/ha)	Preemergence herbicidal rating GLXMAW ([1]; rate 0.1250 kg/ha)	Preemergence herbicidal rating GLXMAW ([1]; rate 0.2500 kg/ha)	Preemergence herbicidal rating TRZAWR ([2]; rate 0.0156 kg/ha)	Preemergence herbicidal rating TRZAWR ([2]; rate 0.0313 kg/ha)	Preemergence herbicidal rating TRZAWR ([2]; rate 0.0625 kg/ha)	Preemergence herbicidal rating TRZAWR ([2]; rate 0.1250 kg/ha)	Preemergence herbicidal rating TRZAWR ([2]; rate 0.2500 kg/ha)	Preemergence herbicidal rating ORYSAT (ORYSAT (Rice, Tebonnet); rate 0.0156 kg/ha)	Preemergence herbicidal rating ORYSAT (ORYSAT (Rice, Tebonnet); rate 0.0313 kg/ha)	Preemergence herbicidal rating ORYSAT (ORYSAT (Rice, Tebonnet); rate 0.0625 kg/ha)	Preemergence herbicidal rating ORYSAT (ORYSAT (Rice, Tebonnet); rate 0.1250 kg/ha)	Preemergence herbicidal rating ORYSAT (ORYSAT (Rice, Tebonnet); rate 0.2500 kg/ha)	Herbicidal rating CASOB (CASOB (Sicklepod); rate 0.0156 kg/ha)	Herbicidal rating CASOB (CASOB (Sicklepod); rate 0.0313 kg/ha)	Herbicidal rating CASOB (CASOB (Sicklepod); rate 0.0625 kg/ha)	herbicidal effect rating, SAGPY ([3]; 0.0313 kg/ha)	herbicidal effect rating, SAGPY ([3]; 0.0625 kg/ha)	also measured
COC(=O)C(Cc1ccc(Cl)cc1)N1C(=O)CSC1=Nc1cc(-n2c(=O)cc(C(F)(F)F)n(C)c2=O)c(F)cc1Cl (racemic) [Compound 77, Methyl α-(p-chlorobenzyl)-2-{{2-chloro-5-[3,6-dihydro-3-methyl-2,6-dioxo-4-(trifluoromethyl)-1(2H)-pyrimidinyl]-4-fluorophenyl}imino}-4-oxo-3-thiazolidineacetate, DL-]	0.0	0.0	0.0	0.0	1.0	0.0	0.0	0.0	1.0	0.0	0.0	0.0	0.0	0.0	0.0	–	–	–	–	–	CASOB herbicidal rating (CASOB (Sicklepod); rate 0.0158 kg/ha): 1.0; CASOB herbicidal rating (CASOB (Sicklepod); rate 0.0315 kg/ha): 1.0; CASOB herbicidal rating (CASOB (Sicklepod); rate 0.0630 kg/ha): 1.0; SAGPY herbicidal effect rating ([3]; 0.0313 kg/ha): 0.0; SAGPY herbicidal effect rating ([3]; 0.0625 kg/ha): 0.0; SAGPY herbicidal effect rating ([3]; 0.1250 kg/ha): 0.0; SAGPY herbicidal effect rating ([3]; 0.2500 kg/ha): 0.0
CC(C)COC(=O)CN1C(=O)CSC1=Nc1cc(-n2c(=O)cc(C(F)(F)F)n(C)c2=O)c(F)cc1Cl [Compound 121, Isobutyl 2-{{2-chloro-5-[3,6-dihydro-3-methyl-2,6-dioxo-4-(trifluoromethyl)-1(2H)-pyrimidinyl]-4-fluorophenyl}imino}-4-oxo-3-thiazolidineacetate]	0.0	0.0	0.0	1.0	2.0	0.0	2.0	3.0	7.0	8.0	0.0	0.0	0.0	4.0	5.0	0.0	1.0	7.0	0.0	4.0	herbicidal effect rating, SAGPY ([3]; 0.1250 kg/ha): 4.0; herbicidal effect rating, SAGPY ([3]; 0.2500 kg/ha): 6.0
Cn1c(C(F)(F)F)cc(=O)n(-c2cc(N=C3SCC(=O)N3CC(=O)OCC3CCCCC3)c(Cl)cc2F)c1=O [Compound 123, Cyclohexylmethyl 2-{{2-chloro-5-[3,6-dihydro-3-methyl-2,6-dioxo-4-(trifluoromethyl)-1(2H)-pyrimidinyl]-4-fluorophenyl}imino}-4-oxo-3-thiazolidineacetate]	0.0	0.0	1.0	4.0	9.0	0.0	0.0	0.0	1.0	1.0	0.0	0.0	0.0	1.0	3.0	3.0	3.0	9.0	5.0	6.0	Herbicidal rating CASOB (CASOB (Sicklepod); rate 0.1250 kg/ha): 8.0; Preemergence herbicidal rating GLXMAW ([1]; rate 0.5000 kg/ha): 6.0; Preemergence herbicidal rating TRZAWR ([2]; rate 0.5000 kg/ha): 1.0; herbicidal effect rating, SAGPY ([3]; 0.1250 kg/ha): 6.0; herbicidal effect rating, SAGPY ([3]; 0.2500 kg/ha): 8.0; Preemergence herbicidal rating ORYSAT (ORYSAT (Rice, Tebonnet); rate 0.5000 kg/ha): 5.0
